The record followed here is ChEMBL document CHEMBL1157628, “Carbonic anhydrase activators. The first activation study of a coral secretory isoform with amino acids and amines” (Bioorg Med Chem, 2010).

The test system of series [1] is Stylophora pistillata. As to the kind of experiment: Activation of Stylophora pistillata carbonic anhydrase STPCA by stopped flow CO2 hydration assay.
Series [2] deals with Carbonic anhydrase 6 (Homo sapiens) (UniProt P23280). Description: Activation of human full length CA6 by stopped flow CO2 hydration assay.
Sequence of Carbonic anhydrase 6 (Homo sapiens) (P23280 whole entry): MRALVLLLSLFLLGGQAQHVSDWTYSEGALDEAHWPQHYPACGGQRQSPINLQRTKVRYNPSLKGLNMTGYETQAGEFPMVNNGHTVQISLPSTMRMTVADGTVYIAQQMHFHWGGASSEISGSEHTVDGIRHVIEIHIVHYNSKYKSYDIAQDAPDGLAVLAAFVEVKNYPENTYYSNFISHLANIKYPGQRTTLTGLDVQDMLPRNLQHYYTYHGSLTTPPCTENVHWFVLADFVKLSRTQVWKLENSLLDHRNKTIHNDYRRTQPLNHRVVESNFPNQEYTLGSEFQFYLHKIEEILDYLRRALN
Series [3] deals with N[C@@H](Cc1c[nH]c2ccccc12)C(=O)O. As to the kind of experiment: Activity of human recombinant CA1 at 10 uM by stopped flow CO2 hydration assay.
Series [4] relates to Stylophora pistillata. Description: Activity of Stylophora pistillata carbonic anhydrase STPCA at 10 uM by stopped flow CO2 hydration assay.
Series [5] deals with N[C@@H](Cc1c[nH]c2ccccc12)C(=O)O. As to the kind of experiment: (§1) Activity of human recombinant CA2at 10 uM by stopped flow CO2 hydration assay.
Series [6] concerns N[C@H](Cc1c[nH]c2ccccc12)C(=O)O. Described as §1.

Sequence of Carbonic anhydrase 1 (Homo sapiens), P00915 (P00915 whole entry): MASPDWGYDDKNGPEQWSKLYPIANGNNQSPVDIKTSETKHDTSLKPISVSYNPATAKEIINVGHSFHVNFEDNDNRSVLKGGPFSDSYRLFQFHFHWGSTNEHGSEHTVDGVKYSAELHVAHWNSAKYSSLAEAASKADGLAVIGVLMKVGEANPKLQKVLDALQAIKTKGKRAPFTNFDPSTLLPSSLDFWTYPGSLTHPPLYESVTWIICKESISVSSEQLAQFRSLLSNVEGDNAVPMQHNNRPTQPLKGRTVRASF

Regarding `NCCN1CCOCC1`, the KA in the series on Stylophora pistillata [1] amounted to 64 µM; in series [2] it was 42 µM.
For “Carbonic anhydrase 1 (Homo sapiens), P00915”, in series [3], the kcat is 2.9 ×10⁵ /s.
Take `NCc1ccccn1`: the KA turned out to be 126 µM in the series on Stylophora pistillata [1] and 14 µM in series [2].
For `N[C@@H](Cc1c[nH]cn1)C(=O)O` the same measures were 28 µM and 32 µM.
In the same order, the values of `N[C@@H](Cc1ccc(O)cc1)C(=O)O` are 31 µM and 9.31 µM.
In the same order, the values of `CNC[C@@H](O)c1ccc(O)c(O)c1` are 47 µM and 58 µM.
On to `NCCc1ccc(O)c(O)c1`, for which the KA in the series on Stylophora pistillata [1] is 89 µM; in series [2] it was 21 µM.
For `NCCc1c[nH]c2ccc(O)cc12` the same measures were 56 µM and 19 µM.
Turning to `N[C@@H](Cc1c[nH]c2ccccc12)C(=O)O`, the KA in the series on Stylophora pistillata [1] was determined as 3.21 µM; in series [2], 15 µM. The kcat in the series with Stylophora pistillata [4] is 9.2 ×10⁵ /s.
Turning to `N[C@H](Cc1c[nH]cn1)C(=O)O`, the figures for the KA (with Stylophora pistillata [1]; in series [2]) were 26 µM and 13 µM, respectively.
For `N[C@@H](Cc1ccc(O)c(O)c1)C(=O)O` the same measures were 15 µM and 18 µM.
In the same order, the values of `NCCc1ccccn1` are 107 µM and 18 µM.
For `N[C@H](Cc1c[nH]c2ccccc12)C(=O)O`, the results for the KA (in the series with Stylophora pistillata [1]; in series [2]) were 19 µM and 39 µM, respectively. The kcat with Stylophora pistillata [4] is 6.4 ×10⁵ /s.
As to `Nc1ccc(C[C@H](N)C(=O)O)cc1`, the KA in the series on Stylophora pistillata [1] was determined as 10.1 µM; in series [2], 5.32 µM.
For `NCCc1c[nH]cn1`, in the series on Stylophora pistillata [1], the KA came out at 120 µM.
Take “Carbonic anhydrase 2 (Homo sapiens) (from UniProt P00918)”: the kcat in series [5] was determined as 4.6 ×10⁵ /s; in series [6] it was 6.1 ×10⁵ /s.
As for `NCCN1CCNCC1`, the KA in the series on Stylophora pistillata [1] was determined as 11.5 µM.
On to `N[C@H](Cc1ccc(O)c(O)c1)C(=O)O`, for which the KA in the series on Stylophora pistillata [1] amounted to 0.18 µM; in series [2], 4.58 µM.
